# Patent US20240165097A1, “PHARMACEUTICAL COMPOSITION FOR THE TREATMENT OF ALZHEIMER'S DISEASE OR DEMENTIA” (Heptares Therapeutics Limited, priority 2021, published 2024)
# Tested on: patients with mild-to-moderate AD
# Assay: Example D: EEG and evoked response potentials
# Type: in vivo, human
# Experimental: Exploratory pharmacodynamic endpoints (Cogstate tests and EEG/evoked response potential [ERP] biomarkers) were evaluated at screening (practice sessions) and baseline visits, and on Day 28±1. While this study was not powered to detect PD effects of small to moderate ESs, the study sample size provided approximately 80% power to detect a large ES of 0.97 for these endpoints using a significance level of 0.10.
# Brain activity was measured at rest using EEG, and during presentation of auditory stimuli using ERPs. The following EEG and ERP parameters were examined because of their sensitivities in detecting brain activity abnormalities at rest and during cognitive processing in patients with AD (Dierks T, Ihl R, Frolich L, Maurer K. Psychiatry Res. 1993; 50(3):151-162; Hedges D, Janis R, Mickelson S, Keith C, Bennett D, Brown B L. Clin EEG Neurosci. 2016; 47(1):48-55; Pekkonen E. Audiol Neurootol. 2000; 5(3-4):216-224): • Resting state power in the delta, theta, alpha, beta and gamma frequency bands measured by EEG activity during eyes open and eyes closed conditions (3 minutes each). • ERP markers (approximately 45 minutes) • Mismatch negativity (MMN; sensory gating/change detection)—amplitude and latency • P300-P3a and P3b (attention and working memory updating)—amplitude and latency • 40 Hz auditory steady-state response (ASSR; gamma oscillations and synchrony)—gamma-band evoked power and phase locking
# EEG and ERP markers were quantified using the following paradigms: • Resting state paradigm (6 minutes): EEGs were recorded while patients were sitting with their eyes open (3 minutes) and closed (3 minutes) for frequency band-power analyses in the delta, theta, alpha, beta, and gamma frequency bands. Primary dependent measure was mean normalised power at Cz electrode in the eyes open and closed conditions. • Passive auditory oddball paradigm (23 minutes): Patients were instructed to ignore auditory stimuli while viewing a silent movie. Patients listened to a pseudorandom sequence of 85 dB tones (5 msec rise/fall times, 500 msec stimulus onset asynchrony); 85% were standards (50 msec, 1 kHz) and 15% were deviants that differed in both duration and pitch (125 msec, 1.5 kHz). Event-related potentials were generated in response to standard and deviant waveforms. Deviant minus standard difference waves were generated. The primary dependent measures were MMN amplitude and latency at Fz and FCComp electrodes (an average of frontal electrodes). • 40 Hz ASSR paradigm (8 minutes): Gamma steady-state responses were assessed in response to 1 ms 85 dB white noise clicks presented in 500 ms trains at a frequency of 40 Hz, with an inter-train interval of 1 second. A total of 500 click trains were presented. The primary dependent measure was gamma-band—evoked power and gamma phase locking at Fz and FCComp electrodes. • Active auditory oddball paradigm (11 minutes): Patients listened to a pseudorandom sequence of 85 dB tones (5 msec rise/fall times, 1500 msec stimulus onset asynchrony); 80% were standards (50 msec, 1 kHz) and 20% were targets (500 msec, 0.5 kHz). Patients were instructed to press a button when they heard target stimuli. ERPs were generated in response to target tones (P3b). The primary dependent measures were P3b amplitude and latency at CPComp electrodes (an average of central and parietal electrodes).
# Patient data were collected from a 64-electrode cap onto a qualified and validated study system operated by site personnel who were specifically trained and certified for the study. The EEGs obtained at each patient visit were reviewed qualitatively by the study EEG expert (who remained blinded to dose allocation) and feedback was provided directly to the relevant site personnel on an ongoing basis and within 2 days of the assessment, to minimise issues from inter-site variability and to ensure the highest possible levels of consistency and reproducibility with respect to the EEG procedures. […]
compound,measurement,setting,value
"CCOC(=O)N1C2CCC1CC(N1CCC3(CC1)CNC(=O)C3)C2 (stereo not drawn) [HTL0018318, ethyl 3-(3-oxo-2,8-diazaspiro[4.5]dec-8-yl)-8-azabicyclo[3.2.1]octane-8-carboxylate]","MMN amplitude at Fz electrode, ES","5 mg, Day 28",−0.84
same,"MMN amplitude at Fz electrode, LSM difference from placebo","5 mg, Day 28",−0.82 uV
same,"peak P3b latency at CPComp electrodes, ES","5 mg, Day 28",−0.81
same,"peak P3b latency at CPComp electrodes, LSM difference from placebo","5 mg, Day 28",-38 ms
same,"MMN amplitude at Fz electrode, ES","15 mg, Day 28",−0.64
same,"MMN amplitude at Fz electrode, LSM difference from placebo","15 mg, Day 28",−0.63 uV
same,"P3a amplitude at Fz electrode, ES","15 mg, Day 28",−0.73
same,"P3a amplitude at Fz electrode, LSM difference from placebo","15 mg, Day 28",−0.84 uV
same,"delta power at Cz electrode, eyes open, ES","15 mg, Day 28",0.75
same,"delta power at Cz electrode, eyes open, LSM difference from placebo","15 mg, Day 28",3.8
same,peak P3b latency at CPComp electrodes,"15 mg, Day 28",no significant decrease
same,"P3b mean amplitude at CPComp electrodes, ESs",across all 3 doses,0.22-0.44
same,"MMN, mean ES",all HTL0018318 doses,0.6
same,"P3b amplitude, ES",all HTL0018318 doses,0.33
same,"P3b latency, ES",all HTL0018318 doses,0.42
same,"eyes open delta power, mean ES",all HTL0018318 doses,0.52
same,peak MMN latency,all doses,No statistically significant improvements
same,40 Hz ASSR gamma-band evoked power or phase locking at Fz electrode,any HTL0018318 dose,no significant effects
